{"source": "patent US20150034084A1", "about": "“[…] NITRIC OXIDE FOR TREATING RESPIRATORY DISEASES” (Advanced Inhalation Therapies (AIT) Ltd., priority 2012, published 2015)", "key": {"[1]": {"assay": "Phase I open label safety study of intermittent 160 ppm gNO inhalation: adverse events, vital signs, oxygenation", "type": "in vivo, human", "source_text": "10 healthy adult volunteer subjects (5 males, 5 females), aged 20 to 62 years, were enrolled in the study after screening their medical history, a physical examination, pulmonary function tests and blood values. Exclusion criteria included individuals less than 19 years of age, pregnant females and unwilling to practice birth control during the study, diagnosed with pulmonary disease, epistaxis, hemoptysis, methemoglobinemia, organ transplant recipient or receiving antibiotic therapy.\nAfter obtaining informed consent, treatment was initiated within 5 days of enrollment. Subjects were housed in a hospital ward and received 160 ppm gNO for 30 minutes every four hours (Q4h), five times a day, for five consecutive days by inhalation. Subjects returned for follow-up evaluations 3, 7 and 21 days after the final gNO administration. Subject safety was determined by monitoring vital signs, methemoglobin levels, lung function, blood chemistry, hematology, prothrombin time, inflammatory cytokine/chemokines levels and endothelial activation. These parameters were compared to baseline and at various time-points during and after gNO administration.\nSubjects were administered gNO through a modified disposable mouthpiece to maximize mixing. Inspiration was spontaneously initiated by the subject from a conventional intermittent positive pressure breathing respirator (Mark-7, Carefusion, USA) in fixed flow mode delivering 48 liters per minute (LPM). Flows of gas were verified with a calibrated mass flow meter (TSI, USA). Gaseous nitric oxide (gNO, obtained at INOmax, Ikaria, USA) at a concentration of 800 ppm delivered at a flow of 12 LPM was titrated into a distal delivery port on the mouth piece connected to the respirator during inspiratory phase only (pressure switch). The Mark 7 respirator was supplied by an air/oxygen blender (Bird Sentry, Carefusion, USA) set to deliver 26% oxygen.\nGeneral medical examinations were performed by a pulmonary physician on screening and on days 8, 12 and 26 to obtain oxygenation and vital sign measurements. Abbreviated physical examination by a registered nurse was carried out each day prior to initiation of treatments on days 1-5. Oxygenation was measured with a pulse oximeter (Rad 57, Masimo Corporation, USA) which was used according to manufacturer's guidelines to measure functional oxygen saturation of arterial hemoglobin (SpO2) and heart rate. These parameters were measured continuously during every gNO administration and for 3.5 hours after the first treatment of the day. Cardiovascular status was determined by monitoring heart rate, blood pressure, respiratory rate and temperature. Values were recorded prior to the start of each gNO administration, following a 5 minute rest. During treatments, vital signs (except temperature) were also performed 15 minutes after the start of the treatment and at the end of gNO administration and recorded. After the first treatment each day, vital signs were recorded at every 30 minutes until the start of the second gNO administration of the day."}, "[2]": {"test_system": "all microorganisms tested", "assay": "Bactericidal effect of 200 ppm gNO, whole panel of microbes (average / all tested)", "type": "cell-based", "conditions": "saline, average over the bacteria of Table 1", "source_text": "A similar procedure was used to determine the time required to induce an effective bactericidal effect with 200 parts per million gNO, a concentration just above the dose used in the dose-ranging study presented hereinabove, on a representative collection of drug resistant gram-positive and gram-negative strains of bacteria associated with clinical infection.\nA successful bactericidal effect was defined as a decrease in bacteria greater than 3 log10 CFU/mL. Further, C. albicans, Methicillin Resistant S. aureus (MRSA), a particularly resistant strain of P. aeruginosa from a cystic fibrosis patient, Group B Streptococcus, and M. smegmatis were also included to evaluate if yeasts, a multi-drug resistant strain of bacteria and actinomycetes have a similar response. These bacteria represent a comprehensive variety of drug resistant bacterial pathogens that contribute to both respiratory and wound infections. The results from these studies laid the foundation for use of gNO at a concentration higher than 160 ppm as an antibacterial agent, specifically for use against bacteria associated with clinical infections.\nFor this study, saline was selected as a suspension media because it would not mask the direct effect of gNO as a bactericidal, whereas fully supplemented growth medium might introduce external variables (e.g., buffer or react with gNO). Other media might also provide metabolites and replenish nutrients that produce enzymes that protect bacteria from oxidative and nitrosative damage, thereby masking the effect of gNO. […] In saline, the colonies were static but remained viable. These conditions are similar to the approach previously used in animal models.\nWithout exception, every bacteria challenged with 200 ppm gNO had at least a 3 log10 reduction in CFU/mL. […] The latent period was then followed by an abrupt death of all cells; gram negative and gram positive bacteria, antibiotic resistant bacterial strains, yeast and mycobacteria all were susceptible to 200 ppm gNO. […]"}, "[3]": {"test_system": "all microorganisms tested", "conditions": "200 ppm gNO, cited from earlier work"}, "[4]": {"test_system": "MRSA", "conditions": "200 ppm gNO, saline; cited from earlier work"}, "[5]": {"conditions": "160 ppm gNO 30 min, 5 times a day, 5 days, 10 healthy adults"}, "[6]": {"conditions": "during or after gNO administration, 160 ppm"}}}
{"smiles": "[N]=O", "note": "[gNO, nitric oxide]", "values": [{"measurement": "minor adverse events reported", "setting": "[1]; [5]", "result": "Three minor adverse events were reported"}, {"measurement": "significant adverse events", "setting": "[1]; [5]", "result": "no significant adverse events were observed"}, {"measurement": "tolerability of treatments", "setting": "[1]; 160 ppm gNO 30 min, 5 times a day, 5 days, 10 healthy adults, 250 administrations", "result": "All treatments were well tolerated"}, {"measurement": "lowest observed SpO2", "setting": "[1]; 160 ppm gNO intermittent inhalation", "result": 93, "unit": "%"}, {"measurement": "SpO2 levels over time, pretreatment vs post treatment", "setting": "[1]; 160 ppm gNO, not significant statistically nor clinically", "result": "decreased slightly"}, {"measurement": "vital signs", "setting": "[1]; during and after gNO administration, 160 ppm", "result": "all vital signs remained within normal limits"}, {"measurement": "blood pressure", "setting": "[1]; [6]", "result": "no drop in blood pressure"}, {"measurement": "incidences of hypoxemia (less than 85% SpO2)", "setting": "[1]; [6]", "result": "No sudden incidences of hypoxemia"}, {"measurement": "LD100, Average", "setting": "[2]", "result": 4.77, "unit": "h"}, {"measurement": "Latent Period, Average", "setting": "[2]", "result": 2.77, "unit": "h"}, {"measurement": "−2.5 Log10, Average", "setting": "[2]", "result": 3.82, "unit": "hours"}, {"measurement": "bactericidal effect", "setting": "[3]", "result": "complete bactericidal effect on all microorganisms tested"}, {"measurement": "reduction in CFU/mL", "setting": "[3]; every bacteria challenged", "result": "≥ 3", "unit": "log10"}, {"measurement": "LD100", "setting": "[4]", "result": 5, "unit": "h"}, {"measurement": "Latent Period", "setting": "[4]", "result": 3, "unit": "h"}, {"measurement": "−2.5 Log10", "setting": "[4]", "result": 4.2, "unit": "hours"}]}
